In ChEMBL document CHEMBL4477208, “Discovery and Rational Design of Pteridin-7(8H)-one-Based Inhibitors Targeting FMS-like Tyrosine Kinase 3 (FLT3) and Its Mutants” (J Med Chem, 2016):
Activity calls are given as the source filed them. The rule behind the calls is not given here.

How the values were obtained:
[1] = target: T1, Receptor-type tyrosine-protein kinase FLT3 (Homo sapiens, UniProt P36888); assay: Binding affinity to auto-inhibited human partial length wild type FLT3 (564 to 969 residues) expressed in mammalian expression system after 1 hr
T1 sequence (P36888 whole entry): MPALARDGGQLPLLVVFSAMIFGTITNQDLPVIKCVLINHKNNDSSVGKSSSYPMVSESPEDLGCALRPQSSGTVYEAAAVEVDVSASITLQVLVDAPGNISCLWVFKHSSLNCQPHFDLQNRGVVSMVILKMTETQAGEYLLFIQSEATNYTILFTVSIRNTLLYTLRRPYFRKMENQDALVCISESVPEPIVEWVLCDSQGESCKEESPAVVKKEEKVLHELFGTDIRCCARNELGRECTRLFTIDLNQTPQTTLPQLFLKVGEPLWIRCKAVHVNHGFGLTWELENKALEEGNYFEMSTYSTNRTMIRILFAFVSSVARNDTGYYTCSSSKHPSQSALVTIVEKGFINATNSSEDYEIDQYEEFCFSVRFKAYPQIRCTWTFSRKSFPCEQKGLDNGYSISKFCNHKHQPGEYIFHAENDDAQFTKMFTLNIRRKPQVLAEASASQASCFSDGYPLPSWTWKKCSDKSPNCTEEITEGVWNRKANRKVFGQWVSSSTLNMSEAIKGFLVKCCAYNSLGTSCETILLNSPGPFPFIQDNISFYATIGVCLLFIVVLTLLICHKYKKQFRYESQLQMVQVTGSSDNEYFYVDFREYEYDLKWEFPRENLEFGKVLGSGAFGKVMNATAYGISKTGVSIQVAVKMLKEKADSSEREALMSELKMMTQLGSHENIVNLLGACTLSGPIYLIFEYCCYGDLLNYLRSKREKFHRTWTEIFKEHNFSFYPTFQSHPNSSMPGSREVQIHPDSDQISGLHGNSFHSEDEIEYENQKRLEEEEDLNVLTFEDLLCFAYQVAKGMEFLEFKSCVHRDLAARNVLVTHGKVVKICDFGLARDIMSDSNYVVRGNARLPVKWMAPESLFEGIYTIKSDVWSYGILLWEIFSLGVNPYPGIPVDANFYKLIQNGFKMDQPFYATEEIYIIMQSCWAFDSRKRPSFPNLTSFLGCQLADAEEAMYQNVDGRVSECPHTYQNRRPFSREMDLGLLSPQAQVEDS

MV4-11 [2] = assay: Antitumor activity against human MV4-11 cells xenografted in nude BALB/c mouse assessed as reduction in tumor cell proliferation by measuring Ki67 positive cells at 50 mg/kg, po qd measured after 1 to 3 days by immunohistochemical assay; type: functional, organism-based
MV4-11 [3] = assay: Induction of apoptosis in human MV4-11 cells assessed as late apoptotic cells at 100 nM after 48 hrs by annexin V/propidium iodide staining based FACS analysis (reference value: 3.01%); type: functional
MV4-11 [4] = assay: Induction of apoptosis in human MV4-11 cells assessed as viable cells at 1 nM after 48 hrs by annexin V/propidium iodide staining based FACS analysis (reference value: 90.60%); type: functional; conditions: MV4-11, 48 h, read-out: Activity
[5] = target: T1, Receptor-type tyrosine-protein kinase FLT3; assay: Binding affinity to human partial length wild type FLT3 (592 to 969 residues) expressed in bacterial expression system after 1 hr
[6] = test system: Receptor-type tyrosine-protein kinase FLT3 (Homo sapiens), P36888 [UNDEFINED MUTATION]; assay: Inhibition of human FLT3 ITD/D835V mutant expressed in mammalian system assessed as remaining enzyme activity at 1 uM relative to untreated control
[7] = test system: Receptor-type tyrosine-protein kinase FLT3 (Homo sapiens), P36888 [N841I]; assay: Inhibition of human FLT3 N841I mutant expressed in bacterial system assessed as remaining enzyme activity at 1 uM relative to untreated control
MOLM-13 = assay: Antiproliferative activity against human MOLM13 cells harboring FLT3-ITD mutant after 72 hrs by MTT assay; type: functional, cell-based; conditions: MOLM-13, 72 h
MV4-11 [8] = assay: Antitumor activity against human MV4-11 cells xenografted in nude BALB/c mouse assessed as tumor growth inhibition administered orally qd for 14 days measured every 2 days; type: functional
MV4-11 [9] = assay: Cell cycle arrest in human MV4-11 cells assessed as accumulation at G0/G1 phase at 1000 nM after 48 hrs by PI/RNase staining based FACS analysis (reference value: 69.55%); type: functional
MV4-11 [10] = assay: Induction of apoptosis in human MV4-11 cells assessed as necrotic cells at 1 nM after 48 hrs by annexin V/propidium iodide staining based FACS analysis (reference value: 0.05%); type: functional
NCI-H187 = assay: Antiproliferative activity against human NCI-H187 cells after 72 hrs by MTT assay; type: functional, cell-based; conditions: NCI-H187, 72 h
MV4-11 [11] = assay: Induction of apoptosis in human MV4-11 cells assessed as late apoptotic cells at 1000 nM after 48 hrs by annexin V/propidium iodide staining based FACS analysis (reference value: 3.01%); type: functional
[12] = Half life in overnight fasted Sprague-Dawley rat plasma at 10 mg/kg administered via oral gavage up to 24 hrs by LC-MS/MS analysis; type: ADME, organism-based
[13] = target: Tyrosine-protein kinase JAK1 (Homo sapiens) (UniProt P23458); assay: Inhibition of human JAK1 expressed in mammalian or bacterial system assessed as remaining enzyme activity at 1 uM relative to untreated control
Tyrosine-protein kinase JAK1 (Homo sapiens), sequence (P23458 whole entry): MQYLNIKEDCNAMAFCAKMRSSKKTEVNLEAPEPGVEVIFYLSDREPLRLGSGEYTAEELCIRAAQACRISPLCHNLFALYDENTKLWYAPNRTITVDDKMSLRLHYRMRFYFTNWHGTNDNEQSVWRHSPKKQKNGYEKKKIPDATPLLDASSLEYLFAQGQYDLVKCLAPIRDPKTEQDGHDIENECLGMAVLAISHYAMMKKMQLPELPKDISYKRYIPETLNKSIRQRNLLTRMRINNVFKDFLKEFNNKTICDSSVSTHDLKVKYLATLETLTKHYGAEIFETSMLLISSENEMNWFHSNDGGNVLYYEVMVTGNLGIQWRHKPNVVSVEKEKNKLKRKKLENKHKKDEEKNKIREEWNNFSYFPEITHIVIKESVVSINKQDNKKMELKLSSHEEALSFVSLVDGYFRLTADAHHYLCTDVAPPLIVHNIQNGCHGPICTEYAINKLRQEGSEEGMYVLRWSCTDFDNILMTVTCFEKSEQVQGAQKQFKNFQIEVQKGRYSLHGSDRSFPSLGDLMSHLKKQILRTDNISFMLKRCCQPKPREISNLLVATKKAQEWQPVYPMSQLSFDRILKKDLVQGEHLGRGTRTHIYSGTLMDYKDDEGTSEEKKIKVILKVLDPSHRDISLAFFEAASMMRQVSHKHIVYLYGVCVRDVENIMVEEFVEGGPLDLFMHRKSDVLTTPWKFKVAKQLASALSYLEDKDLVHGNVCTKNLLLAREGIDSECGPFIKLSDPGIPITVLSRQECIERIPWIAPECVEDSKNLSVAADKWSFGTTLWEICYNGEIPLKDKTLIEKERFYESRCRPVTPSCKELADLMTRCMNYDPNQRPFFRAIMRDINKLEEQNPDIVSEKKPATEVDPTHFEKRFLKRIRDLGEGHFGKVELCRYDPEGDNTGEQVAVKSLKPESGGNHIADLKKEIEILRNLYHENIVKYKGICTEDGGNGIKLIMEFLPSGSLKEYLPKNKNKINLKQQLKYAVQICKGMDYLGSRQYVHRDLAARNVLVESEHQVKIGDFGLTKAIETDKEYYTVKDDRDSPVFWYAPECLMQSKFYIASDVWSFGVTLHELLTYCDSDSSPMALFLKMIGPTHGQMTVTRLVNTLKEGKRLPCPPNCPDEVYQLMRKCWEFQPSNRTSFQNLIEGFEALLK

[14] = test system: Receptor-type tyrosine-protein kinase FLT3 (Homo sapiens), P36888 [D835V]; assay: Inhibition of human FLT3 D835V mutant expressed in mammalian system assessed as remaining enzyme activity at 1 uM relative to untreated control
[15] = target: Receptor-type tyrosine-protein kinase FLT3 (Homo sapiens, UniProt P36888, ITD); assay: Binding affinity to human partial length FLT3 ITD mutant expressed in bacterial expression system after 1 hr
[16] = target: Dual specificity mitogen-activated protein kinase kinase 5 (Homo sapiens) (UniProt Q13163); assay: Inhibition of human MEK5 expressed in mammalian system assessed as remaining enzyme activity at 1 uM relative to untreated control
Dual specificity mitogen-activated protein kinase kinase 5 (Homo sapiens), sequence (Q13163 whole entry): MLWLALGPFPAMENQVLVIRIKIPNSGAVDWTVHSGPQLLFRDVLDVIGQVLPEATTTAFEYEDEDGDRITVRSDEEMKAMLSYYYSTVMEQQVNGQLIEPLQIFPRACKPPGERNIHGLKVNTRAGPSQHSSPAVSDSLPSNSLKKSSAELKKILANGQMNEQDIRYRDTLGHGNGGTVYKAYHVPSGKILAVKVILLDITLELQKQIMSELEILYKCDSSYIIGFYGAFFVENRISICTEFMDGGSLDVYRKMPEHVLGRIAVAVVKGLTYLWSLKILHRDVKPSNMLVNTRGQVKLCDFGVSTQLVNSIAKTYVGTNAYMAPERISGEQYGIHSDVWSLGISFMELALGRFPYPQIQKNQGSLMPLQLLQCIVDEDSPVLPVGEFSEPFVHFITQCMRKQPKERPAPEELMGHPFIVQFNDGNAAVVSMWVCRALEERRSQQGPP

NCI-H1975 = assay: Antiproliferative activity against human NCI-H1975 cells after 72 hrs by SRB assay; type: functional, cell-based; conditions: NCI-H1975, 72 h
NCI-H1299 = assay: Antiproliferative activity against human H1299 cells after 72 hrs by SRB assay; type: functional, cell-based; conditions: NCI-H1299, 72 h
[17] = Tmax in overnight fasted Sprague-Dawley rat plasma at 10 mg/kg administered via oral gavage up to 24 hrs by LC-MS/MS analysis; type: ADME, organism-based
[18] = Half life in overnight fasted Sprague-Dawley rat plasma at 1 mg/kg, iv up to 24 hrs by LC-MS/MS analysis; type: ADME, organism-based
[19] = target: Receptor-type tyrosine-protein kinase FLT3 (Homo sapiens, UniProt P36888, F691L/ITD); assay: Binding affinity to human partial length FLT3 ITD/F691L mutant expressed in mammalian expression system after 1 hr
SH-SY5Y = assay: Antiproliferative activity against human SH-SY5Y cells after 72 hrs by SRB assay; type: functional, cell-based
NCI-H146 = assay: Antiproliferative activity against human NCI-H146 cells after 72 hrs by MTT assay; type: functional, cell-based; conditions: NCI-H146, 72 h

SMILES: Cc1cc(Nc2ncc3ncc(=O)n(-c4ccc(N)cc4)c3n2)ccc1N1CCN(C)CC1
- Kd [1]: 79 nM
- Activity (MV4-11 [2]): Active
- Activity (MV4-11 [3]): 16.4%
- viability at 0.001 µM (MV4-11 [4]): 90.3%
- Kd [5]: 5 nM
- Activity [6]: < 1%
- Activity [7]: < 1%
- IC50 (MOLM-13): 32.9 nM
- TGI (MV4-11 [8]): Dose-dependent effect
- Activity (MV4-11 [9]): 80.55%
- Activity (MV4-11 [10]): 0.1%
- IC50 (NCI-H187): > 10000 nM
- Activity (MV4-11 [11]): 34.3%
- half-life [12]: 4.49 h
- Activity [13]: < 1%
- Activity [14]: < 1%
- Kd [15]: 6.9 nM
- Activity [16]: < 1%
- IC50 (NCI-H1975): 4460 nM
- IC50 (NCI-H1299): 4880 nM
- Tmax [17]: 2.17 h
- half-life [18]: 3.11 h
- Kd [19]: 5.7 nM
- IC50 (SH-SY5Y): 5570 nM
- IC50 (NCI-H146): > 10000 nM
